According to paper PMC6631687, “Relevance of In Vitro Metabolism Models to PET Radiotracer Development: Prediction of In Vivo Clearance in Rats from Microsomal Stability Data” (Pharmaceuticals, 2019):
Read-outs that look alike come from different tables or passages of the source.

Experiments:
[1] = Microsomal stability assay (substrate depletion) in rat liver microsomes; assay type: in vitro ADME; settings: male, Sprague Dawley; for half-life at 8 µM: pH 7.4, 8 µM substrate, 0.5 mg/mL protein, triplicate, read-out: In vitro t1/2 (SD); for CLint scaled at 8 µM: pH 7.4, scaled from in vitro t1/2 with fmic, 60 mg protein/g liver, 40 g liver/kg, read-out: CLint (SD), intrinsic clearance
Procedure: RLM (Sprague Dawley, male, 20 mg/mL protein concentration) were purchased from Thermo Fisher Scientific/Life Technologies (Darmstadt, Germany). Assay conditions (buffer, microsomal protein concentration, solvent) were evaluated and optimized in a preliminary study. RLM (0.5 mg/mL microsomal protein) and substrate (8 µM CBX, MCBX or CPFPX, 1 mM stock solutions in DMSO) were preincubated for 5 min at 37 °C in HEPES buffer (100 mM, pH 7.4) containing MgCl2 (3.3 mM). Reactions were initiated by addition of preheated NADPH (1.3 mM). Final incubation volume was 1 mL. Aliquots (100 µL) were withdrawn at 0, 2, 5, 10, 15 and 20 min and quenched with an equal volume of methanol/acetonitrile (50:50, v/v, cooled to −20 °C). The samples were mixed on a vortex mixer (1 min, 21 °C) and centrifuged (20,000 rcf, 10 min, 21 °C) to sediment precipitated protein. The supernatants (aliquots of 50 µL) were analyzed on a Knauer smartline HPLC-UV/VIS system (Knauer, Berlin, Germany) equipped with a manual sample injector (Rheodyne type 7125), a 500 µL sample loop and a Kromasil 100-5-C18 (4.6 × 250 mm) analytical column (AkzoNobel, Bohus, Sweden). Chromatography was performed using a mobile phase composition of ACN/H2O/HAc 48:52:0.2 (v/v/v), and with a flow rate of 1 mL/min and a detection wavelength of 275 nm. Experiments were conducted in triplicate.
Substrate depletion was calculated from the area ratios of the analyte peak, using the value at t = 0 min as 100%. Depletion data were fitted to the monoexponential decay model (Equation (1)) to derive in vitro t1/2. (1) C(t)=C0e^−ln2/t1/2t where C0 is the substrate concentration at time t = 0.
(§1) Intrinsic clearance was calculated from in vitro t1/2 using the equation [38]:(2) CLint=ln2/in vitro t1/2 (min)×fmic×ml incubation/mg microsomal protein×mg microsomal protein/g liver weight×g liver/kg body weight where scaling factors of 60 mg of microsomal protein per gram of liver and 40 g of liver tissue per kilogram of body weight were applied.

[2] = Lipophilicity (log P); assay type: physicochemical
Procedure: Table 1 Metabolic stability of the xanthine A1AR ligands in rat liver microsomes and predicted plasma clearance (CLp). Experiments were conducted in triplicate. fmic, unbound fraction in microsomes; CLint, intrinsic clearance; SD, standard deviation. | column: Log P

[3] = Prediction of in vivo plasma clearance from microsomal stability data (well-stirred liver model) and prediction accuracy; assay type: in vitro ADME; settings: rat; for CLp Predicted (SD), predicted plasma clearance: well-stirred liver model, corrected for microsomal and plasma protein binding; for Fold Error CL (ratio predicted/observed) / Fold Underprediction CL: predicted vs observed CLp
Procedure: as §1
In vivo clearance in plasma was predicted using the well-stirred liver model:(4) CLp=Q×fp×CLint/Q+fp×CLint where fp is the fraction unbound in plasma and Q is hepatic blood flow with a given value of 55 mL/min/kg for rat.
The individual prediction accuracy was assessed by calculation of fold error (ratio predicted/observed). AFE (Equation (5)) and RMSE (Equation (6)) were used as measures for overall bias and precision. Underprediction was also expressed as fold underprediction, which is the inverse of AFE. (5) AFE=10^1/n∑logpredicted/observed (6) RMSE=1/n∑(predicted−observed)^2 with n, number of predictions.

[4] = In vivo pharmacokinetics in rat plasma after i.v. administration; settings: for clearance / Vd / half-life: iv, single i.v. dose approx. 0.4 nmol, mean plasma curves, triexponential fit; for clearance: read-out: CLp (plasma clearance, in vivo); for Vd: read-out: Vd (volume of distribution); for half-life: read-out: t1/2,term (terminal half-life); for Parent fraction (authentic radiotracer of total plasma radioactivity): rat plasma, 180 min p.i., radio-TLC
Procedure: Pharmacokinetic experiments on rats (n = 27) were conducted under isoflurane anesthesia (1.5–2% in oxygen) with continuous monitoring of physiological parameters. Polyethylene catheters (PE 50; filled with heparinized saline) were implanted into the femoral artery for arterial blood sampling and the lateral tail vein for radiotracer application. [^18F]CPFPX, [^18F]MCBX or [^18F]CBX (21 ± 2.5 MBq, 0.39 ± 0.20 nmol) was formulated in physiological saline (1 mL total volume) and administered over 1 min using a syringe pump (model 44, Harvard Apparatus, Holliston, MA, USA). Arterial blood samples (ca. 200 μL) were collected at regular time intervals throughout the 180-min experiment. The total blood sampling volume was kept below 10% of the circulating blood volume of the animal. Plasma was separated by centrifugation (3,000 rcf, 3 min, 21 °C), weighed and measured in a γ-counter (ISOMED 2100, MED Nuklear-Medizintechnik Dresden GmbH, Dresden, Germany) to calculate plasma radioactivity concentration. Fractions of unchanged radiotracer (parent fraction) and radiolabeled metabolites in plasma were assessed by radio-thin layer chromatography (TLC) analysis. Aliquots (45 μL) of plasma were mixed with 3 volumes of methanol/acetonitrile (50:50, v/v, 4 °C), vortexed (1 min, 21 °C) and centrifuged (20,000 rcf, 5 min, 21 C) to sediment precipitated protein. Aliquots (5 μL) of the supernatants were spotted on a TLC plate (SIL G-25, 10 × 20 cm, Macherey-Nagel, Düren, Germany). The TLC plate was developed with ethyl acetate/hexane, 75:25 (v/v), dried and subsequently imaged for 50 min with an electronic autoradiography system (InstantImager, Canberra-Packard, Rüsselsheim, Germany).
PK analysis was performed on decay and metabolite-corrected plasma radioactivity data of 8 ([^18F]CBX, [^18F]CPFPX) or 9 ([^18F]MCBX) individual animals. Data of 2 animals could not be used for PK analysis due to paravenous radiotracer injection. Since interindividual variations in plasma kinetics within the test groups were relatively small, individual plasma data were combined to mean data sets for analysis. Assuming a specific density of 1 g/mL for plasma, radioactivity concentration was calculated and plotted against time. For data visualization, plasma radioactivity concentration was normalized to body weight and amount of injected radioactivity, yielding SUV. PK parameters were derived from the radioactivity concentration-time data via nonlinear regression analysis applying a triexponential model:(7) Cp(t)=A1e^−λ1t+A2e^−λ2t+A3e^−λ3t where Cp is the plasma radioactivity concentration, t is time, A1, A2, and A3 represent the y-intercepts of the distribution/elimination phases of the plasma concentration-time curve and λ1, λ2, and λ3 represent the first-order rate constants of the phases.
Plasma clearance, volume of distribution and terminal half-life were calculated from the model parameters A and λ according to the following equations [44]:(8) CLp=D/∫0∞Cp(t)dt=D/∑i=1nAi/λi (9) Vd=Clp/λ3 (10) t1/2,term=ln 2/λ3 where D is the injected radioactivity and λ3 is the terminal rate constant.

Structure (SMILES) | half-life at 8 µM [1] [min] | CLint scaled at 8 µM [1] [mL/min/kg] | logP [2] | CLp Predicted (SD), predicted plasma clearance [3] | Fold Error CL (ratio predicted/observed) [3] | Fold Underprediction CL [3] | clearance ([4]; rat) [mL/min/kg] | Vd ([4]; rat) [L/kg] | half-life ([4]; rat) [min] | Parent fraction (authentic radiotracer of total plasma radioactivity) [4] | Plasma level relative to [^18F]CPFPX ([4]; rat, second and third phase of the curve (10-180 min p.i.)) | half-life ([4]; 0.39 nmol, rat) [min]
CCCn1c(=O)c2[nH]c(C3(C)CCC3)nc2n(CCCF)c1=O [MCBX] | 19.8 | 204 | 2.82 | 7.76 (0.22) mL/min/kg |  |  |  |  |  |  |  | 
CCCn1c(=O)c2[nH]c(C3CCC3)nc2n(CCC[18F])c1=O [[^18F]CBX, 8-cyclobutyl-3-(3-[^18F]fluoropropyl)-1-propylxanthine] |  |  |  |  | 0.84 | 1.2 | 3.22 | 0.356 | 76.5 | ~25% | approximately twice as high | 
CCCn1c(=O)c2[nH]c(C3(C)CCC3)nc2n(CCC[18F])c1=O [[^18F]MCBX, 3-(3-[^18F]fluoropropyl)-8-(1-methylcyclobutyl)-1-propylxanthine] |  |  |  |  | 0.85 | 1.2 | 9.1 | 0.715 | 54.5 | ~13% |  | ~50

The next lines start with the values.

half-life at 8 µM [1] [min] | CLint scaled at 8 µM [1] [mL/min/kg] | logP [2] | CLp Predicted (SD), predicted plasma clearance [3] | Fold Error CL (ratio predicted/observed) [3] | Fold Underprediction CL [3] | clearance ([4]; rat) [mL/min/kg] | Vd ([4]; rat) [L/kg] | half-life ([4]; rat) [min] | Parent fraction (authentic radiotracer of total plasma radioactivity) [4] | Plasma level relative to [^18F]CPFPX ([4]; rat, second and third phase of the curve (10-180 min p.i.)) | half-life ([4]; 0.39 nmol, rat) [min] | Structure (SMILES)
35.1 | 106 | 2.19 | 2.72 (0.13) mL/min/kg |  |  |  |  |  |  |  |  | CCCn1c(=O)c2[nH]c(C3CCC3)nc2n(CCCF)c1=O [CBX]
14 | 295 | 2.93 | 4.70 (0.07) mL/min/kg | 0.66 |  |  |  |  |  |  |  | CCCn1c(=O)c2nc(C3CCCC3)[nH]c2n(CCCF)c1=O [CPFPX, reference compound]
 |  |  |  | 0.66 | 1.5 | 7.1 | 0.523 | 51 | approximately 7% |  | ~50 | CCCn1c(=O)c2[nH]c(C3CCCC3)nc2n(CCC[18F])c1=O [[^18F]CPFPX, 8-cyclopentyl-3-(3-[^18F]fluoropropyl)-1-propylxanthine, reference compound]
